Laboratory results reported in patent publication US20200270233A1, “DHFR INHIBITORS, COMPOSITIONS, AND METHODS RELATED THERETO” (Vyera Pharmaceuticais LLC, priority 2017, published 2020).
Like-named read-outs stand apart in the source and are kept apart here.

Columns and labels:
T. gondii DHFR (tgDHFR) = target: T1, T. gondii DHFR (tgDHFR) (Toxoplasma gondii, UniProt Q07422); assay: biochemical; conditions: for Average DHFR selectivity (h/tg): hDHFR IC50/tgDHFR IC50
T1 sequence (Q07422 1-610): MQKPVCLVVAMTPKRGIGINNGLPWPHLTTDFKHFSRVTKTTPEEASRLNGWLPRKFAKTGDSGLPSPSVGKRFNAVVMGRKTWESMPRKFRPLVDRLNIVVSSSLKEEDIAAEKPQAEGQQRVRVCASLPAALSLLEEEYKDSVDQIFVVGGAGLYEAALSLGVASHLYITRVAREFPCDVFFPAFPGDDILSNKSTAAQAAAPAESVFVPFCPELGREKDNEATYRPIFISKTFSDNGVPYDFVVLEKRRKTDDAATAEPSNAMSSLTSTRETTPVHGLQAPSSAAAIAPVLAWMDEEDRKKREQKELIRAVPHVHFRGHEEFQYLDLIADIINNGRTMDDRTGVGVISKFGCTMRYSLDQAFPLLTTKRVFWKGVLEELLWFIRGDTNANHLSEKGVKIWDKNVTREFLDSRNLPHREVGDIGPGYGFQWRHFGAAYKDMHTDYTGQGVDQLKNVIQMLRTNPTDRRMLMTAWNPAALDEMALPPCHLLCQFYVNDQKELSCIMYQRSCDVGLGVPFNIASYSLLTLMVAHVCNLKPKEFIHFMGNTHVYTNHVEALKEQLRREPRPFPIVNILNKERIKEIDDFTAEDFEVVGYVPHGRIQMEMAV

hDHFR = target: T2, hDHFR (Homo sapiens, UniProt P00374); format: biochemical; conditions: pIC50 = -log10 IC50, at least three replicates, read-out: hDHFR pIC50-DHFR primary assay (converted)
T2 sequence (P00374 1-187): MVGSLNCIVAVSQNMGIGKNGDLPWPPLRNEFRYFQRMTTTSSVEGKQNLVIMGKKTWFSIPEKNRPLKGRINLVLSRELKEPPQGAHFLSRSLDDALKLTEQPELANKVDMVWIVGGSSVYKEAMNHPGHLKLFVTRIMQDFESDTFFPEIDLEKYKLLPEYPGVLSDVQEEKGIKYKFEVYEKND

[1] = Table 16, pIC50 = -log10 IC50, at least three replicates, read-out: tgDHFR pIC50-DHFR primary assay (converted)

Row | Structure (SMILES) | Average DHFR selectivity (h/tg) (T. gondii DHFR (tgDHFR); Table 16) | IC50 (T. gondii DHFR (tgDHFR); [1]) | IC50 (hDHFR; Table 16) | IC50 (T. gondii DHFR (tgDHFR)) | IC50 (hDHFR; Table 18) | IC50 (hDHFR; Table 20)
1 | COc1ncc(-c2cc(N3CCN(c4cnc(N)nc4N)CC3)ccc2F)cn1 [Compound 160] | 156.11 | 2.51 nM | 389 nM |  |  | 
2 | Nc1ncc(N2CCN(c3cccc(Br)c3)CC2)c(N)n1 [Compound 11, 5-(4-(3-bromophenyl)piperazin-1-yl)pyrimidine-2,4-diamine] |  |  | 437 nM | 11.7 nM |  | 
3 | Nc1ncc(N2CCN(c3cccc(-c4cccc(F)c4)c3)CC2)c(N)n1 [Compound 64] |  |  | 1070 nM | 11.5 nM |  | 
4 | CCCc1nc(N)nc(N)c1N1CCN(c2ccc(F)cc2)CC1 [Compound 52, 5-(4-(4-fluorophenyl)piperazin-1-yl)-6-propylpyrimidine-2,4-diamine] |  |  | 10000 nM | 33.1 nM |  | 
5 | COc1ncccc1-c1cccc(N2CCN(c3cnc(N)nc3N)CC2)c1 [Compound 80] |  |  | 1020 nM | 6.17 nM |  | 
6 | CCc1nc(N)nc(N)c1N1CCN(c2ccc(C)cn2)CC1 [Compound 45, 6-ethyl-5-(4-(5-methylpyridin-2-yl)piperazin-1-yl)pyrimidine-2,4-diamine] |  |  | 794 nM | 5.89 nM |  | 
7 | CC1CN(c2cnc(N)nc2N)CCN1c1cccc(-c2ccccc2)c1 (stereo not drawn) [Compound 26, 5-(4-([1,1′-biphenyl]-3-yl)-3-methylpiperazin-1-yl)pyrimidine-2,4-diamine] |  |  | 30.2 nM | 2 nM |  | 
8 | COc1ncc(-c2cncc(N3CCN(c4cnc(N)nc4N)CC3)c2)cn1 [Compound 162] | 117.08 | 12.3 nM | 1450 nM |  |  | 
9 | Nc1ncc(N2CCN(c3cccc(-c4cncnc4)c3)CC2)c(N)n1 [Compound 74] |  |  |  |  | 3090 nM | 
10 | COc1ncc(-c2cc(N3CCN(c4cnc(N)nc4N)CC3)ccn2)cn1 [Compound 163] | 23.00 | 6.76 nM | 155 nM |  |  | 
11 | COc1ncc(-c2cccc(N3CCN(c4cnc(N)nc4N)CC3)n2)cn1 [Compound 158] | 17.78 | 1.02 nM | 18.2 nM |  |  | 
12 | Nc1ncc(N2CCN(c3cccc(-c4cnc(O)nc4)n3)CC2)c(N)n1 [Compound 181, 5-(6-(4-(2,4-diaminopyrimidin-5-yl)piperazin-1-yl)pyridin-2-yl)pyrimidin-2-ol] | 13.94 | 1.2 nM | 16.6 nM |  |  | 
13 | CC1CN(c2cccc(-c3ccccc3)c2)CCN1c1cnc(N)nc1N (stereo not drawn) [Compound 27, 5-(4-([1,1′-biphenyl]-3-yl)-2-methylpiperazin-l-yl)pyrimidine-2,4-diamine] |  |  | 30200 nM | 138 nM |  | 
14 | Cc1ncc(-c2cccc(N3CCN(c4cnc(N)nc4N)CC3)c2)cn1 [Compound 69, 5-(4-(3-(2-methylpyrimidin-5-yl)phenyl)piperazin-1-yl)pyrimidine-2,4-diamine] |  |  |  | 4.47 nM |  | 
15 | N#Cc1cccc(-c2cccc(N3CCN(c4cnc(N)nc4N)CC3)c2)c1 [Compound 67] |  |  | 302 nM | 3.89 nM |  | 
16 | Nc1ncc(N2CCN(c3ccc(Cl)c(Cl)c3)CC2)c(N)n1 [Compound 1, 5-(4-(3,4-dichlorophenyl)piperazin-1-yl)pyrimidine-2,4-diamine] |  |  | 75.9 nM | 13.8 nM |  | 
17 | Nc1nc(N)c(N2CCN(c3ccccc3)CC2)c(CC2CC2)n1 [Compound 106] |  |  | 5890 nM | 27.5 nM |  | 
18 | CCc1nc(N)nc(N)c1N1CCN(c2ccccc2)CC1 [Compound 28, 6-ethyl-5-(4-phenylpiperazin-1-yl)pyrimidine-2,4-diamine] |  |  | 1350 nM | 5.75 nM |  | 

Row | Structure (SMILES) | Average DHFR selectivity (h/tg) (T. gondii DHFR (tgDHFR); Table 16) | IC50 (T. gondii DHFR (tgDHFR); [1]) | IC50 (hDHFR; Table 16) | IC50 (T. gondii DHFR (tgDHFR)) | IC50 (hDHFR; Table 18) | IC50 (hDHFR; Table 20)
19 | CCc1nc(N)nc(N)c1N1CCN(c2ccc(F)cc2)CC1 [Compound 35, 6-ethyl-5-(4-(4-fluorophenyl)piperazin-1-yl)pyrimidine-2,4-diamine] |  |  |  | 6.92 nM |  | 
20 | COc1ncc(-c2cccc(N3CC=C(c4cnc(N)nc4N)CC3)c2)cn1 [Compound 182, 5-(1-(3-(2-methoxypyrimidin-5-yl)phenyl)-1,2,3,6-tetrahydropyridin-4-yl)pyrimidine-2,4-diamine] | 37.84 | 2.04 nM | 77.6 nM |  |  | 
21 | CCCc1nc(N)nc(N)c1N1CCN(c2ccccn2)CC1 [Compound 56, 6-propyl-5-(4-(pyridin-2-yl)piperazin-1-yl)pyrimidine-2,4-diamine] |  |  | 6760 nM | 25.7 nM |  | 
22 | CCc1nc(N)nc(N)c1N1CCN(c2ccccn2)CC1 [Compound 34, 6-ethyl-5-(4-(pyridin-2-yl)piperazin-1-yl)pyrimidine-2,4-diamine] |  |  | 1020 nM | 6.46 nM |  | 
23 | CN(C)c1ncc(-c2cccc(N3CCN(c4cnc(N)nc4N)CC3)c2)cn1 [Compound 96] |  |  | 1150 nM | 10 nM |  | 
24 | CCc1nc(N)nc(N)c1N1CCN(c2ccncc2)CC1 [Compound 36, 6-ethyl-5-(4-(pyridin-4-yl)piperazin-1-yl)pyrimidine-2,4-diamine] |  |  | 30200 nM | 269 nM |  | 
25 | Nc1ncc(N2CCN(c3cccc(C4CCOCC4)c3)CC2)c(N)n1 [Compound 110, 5-(4-(3-(tetrahydro-2H-pyran-4-yl)phenyl)piperazin-1-yl)pyrimidine-2,4-diamine] |  |  | 6170 nM | 34.7 nM |  | 7760 nM
26 | CCCc1nc(N)nc(N)c1N1CCC(c2ccccc2)CC1 [Compound 51, 5-(4-phenylpiperidin-1-yl)-6-propylpyrimidine-2,4-diamine] |  |  | 2450 nM | 11.7 nM |  | 
27 | Nc1ncc(N2CCN(c3cccc(-c4cnc(Cl)nc4)c3)CC2)c(N)n1 [Compound 100] |  |  | 1320 nM | 6.76 nM | 1320 nM | 
28 | COc1ncc(-c2ccc(F)c(N3CCN(c4cnc(N)nc4N)CC3)c2)cn1 [Compound 164] | 65.26 | 8.71 nM | 562 nM |  |  | 
29 | CNc1ncc(-c2cccc(N3CCN(c4cnc(N)nc4N)CC3)c2)cn1 [Compound 97] |  |  | 741 nM | 5.62 nM |  | 
30 | CCCc1nc(N)nc(N)c1N1CCN(c2ccc(OC)cn2)CC1 [Compound 60, 5-(4-(5-methoxypyridin-2-yl)piperazin-1-yl)-6-propylpyrimidine-2,4-diamine] |  |  | 2880 nM | 20 nM |  | 
31 | COc1ncc(-c2cccc(N3CCN(c4cnc(N)nc4N)CC3)c2F)cn1 [Compound 159] | 80.32 | 30.2 nM | 2340 nM |  |  | 
32 | CCc1nc(N)nc(N)c1N1CCN(c2ccc(F)cn2)CC1 [Compound 44, 6-ethyl-5-(4-(5-fluoropyridin-2-yl)piperazin-1-yl)pyrimidine-2,4-diamine] |  |  | 295 nM | 4.17 nM |  | 
33 | CCc1nc(N)nc(N)c1N1CCN(c2ccc(C)cc2)CC1 [Compound 39, 6-ethyl-5-(4-(p-tolyl)piperazin-1-yl)pyrimidine-2,4-diamine] |  |  | 1740 nM | 12.3 nM |  | 
34 | Nc1ncc(N2CCC(c3ccccc3)CC2)c(N)n1 [Compound 15, 5-(4-phenylpiperidin-1-yl)pyrimidine-2,4-diamine] |  |  | 4070 nM | 162 nM |  | 
35 | Cc1ncc(-c2cccc(C3CCN(c4cnc(N)nc4N)CC3)c2)cn1 [Compound 113, 5-(4-(3-(2-methylpyrimidin-5-yl)phenyl)piperidin-1-yl)pyrimidine-2,4-diamine] |  |  | 372 nM | 6.17 nM |  | 
36 | Nc1ncc(N2CCN(c3cccc(-c4cnc(C5CC5)nc4)c3)CC2)c(N)n1 [Compound 86] |  |  |  |  | 832 nM | 
